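Results reflect a 48-hour exposure of cells in 96-well plates to compound at five concentrations. Here, GI50 denotes the concentration required for 50% inhibition of growth. TGI: concentration producing complete growth inhibition.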
What was measured:
Experiment in all cases: growth of human tumour cells (NCI), 48 h
[1] = test system: OVCAR-8 ovarian
[2] = test system: A498 renal
[3] = test system: COLO 205 colon
[4] = test system: RXF 393 renal
[5] = test system: A549 NSCLC
[6] = test system: NCI-H522 lung
[7] = test system: MALME-3M melanoma
[8] = test system: NCI-H226 lung
[9] = test system: SK-MEL-2 melanoma
[10] = test system: CCRF-CEM leukemia

Compound | GI50 [1] | TGI [1] | GI50 [2] | TGI [2] | GI50 [3] | TGI [3] | GI50 [4] | TGI [4] | GI50 [5] | TGI [5] | GI50 [6] | TGI [6] | GI50 [7] | TGI [7] | GI50 [8] | TGI [8] | GI50 [9] | TGI [9] | GI50 [10] | TGI [10]
Cc1cc(Nc2ccc(OCc3ccccc3)cc2)nc2cc(O)ccc12 | 12.4 µM | 29.5 µM | 13 µM | 27 µM | 4.84 µM | 17 µM | 2.95 µM | 12.1 µM | 5.23 µM | 20.4 µM | 3.01 µM | 12.1 µM | 3.88 µM | 11.2 µM | 3.49 µM | 17.6 µM | 11.9 µM | 30.1 µM | 3.01 µM | 20.7 µM
CC1(C)N=C(N)N=C(N)N1c1ccc(CCCCc2ccccc2)c(Cl)c1 | 0.0606 µM | > 39.7 µM | 0.746 µM | 14.5 µM | 0.0281 µM | 1.68 µM | 0.334 µM | 7.79 µM | < 0.01 µM | 15 µM | 0.05 µM | 1.83 µM | 0.855 µM | 8.93 µM | 0.275 µM | 24.4 µM | 0.0394 µM | 12.4 µM | 0.0374 µM | 14.2 µM
C=CCC(N[C@@H](CO)c1ccccc1)c1cn(Cc2ccccc2Cl)c(=O)n(Cc2ccccc2Cl)c1=O (stereo not given in full) | > 100 µM | > 100 µM | 13.5 µM | > 100 µM | > 100 µM | > 100 µM | > 100 µM | > 100 µM | > 100 µM | > 100 µM | > 100 µM | > 100 µM | > 100 µM | > 100 µM | > 100 µM | > 100 µM | > 100 µM | > 100 µM | > 100 µM | > 100 µM
CN(C)c1ccc(/C=C/c2ccnc3c(O)cccc23)cc1 | 0.352 µM | > 100 µM | 3.39 µM | > 100 µM | 18.5 µM | > 100 µM | 0.813 µM | 15.1 µM | 0.376 µM | > 100 µM | 0.257 µM | 1.72 µM | 0.847 µM | 9.43 µM | 2.31 µM | > 26.8 µM | 0.301 µM | 11 µM | 0.333 µM | > 100 µM
Cc1cccc(-c2[nH]ncc2-c2ccc3ncccc3n2)n1 | 8.54 µM | > 25 µM | > 14.1 µM | > 25 µM | 6.31 µM | 16.7 µM | 5.87 µM | 12.7 µM | 9.27 µM | > 25 µM | > 25 µM | > 25 µM | > 25 µM | > 25 µM | 9.92 µM | > 25 µM | 10.7 µM | > 25 µM | 12.4 µM | > 25 µM
Cc1ccc(NC(=O)c2ccc(CN3CCN(C)CC3)cc2)cc1Nc1nccc(-c2cccnc2)n1 | 27 µM | > 89.9 µM | 20.6 µM | 39.2 µM | 16.7 µM | 40.5 µM | 14.2 µM | 33.3 µM | 25.9 µM | 89.3 µM | 16.1 µM | 32.7 µM | 16.5 µM | 32 µM | 19.6 µM | 49.9 µM | 22.1 µM | 54.8 µM | 18.4 µM | 71.1 µM
Cc1cc(Cl)cc2c(N=Nc3ccc(S(N)(=O)=O)cc3)c(O)[nH]c12 | > 25 µM | > 25 µM | > 25 µM | > 25 µM | > 25 µM | > 25 µM | > 14.5 µM | > 25 µM | > 25 µM | > 25 µM | > 25 µM | > 25 µM | > 25 µM | > 25 µM | > 25 µM | > 25 µM | > 25 µM | > 25 µM | > 25 µM | > 25 µM
CC1=Nc2ccccc2NC(c2ccoc2)C1 (stereo not given) | – | > 100 µM | – | > 100 µM | – | > 100 µM | – | > 100 µM | – | > 100 µM | – | > 100 µM | – | > 100 µM | – | > 100 µM | – | > 100 µM | – | > 100 µM
Cc1c(O)c2ccccc2oc1=O | – | > 100 µM | – | > 100 µM | – | > 100 µM | – | > 100 µM | – | > 100 µM | – | > 100 µM | – | > 100 µM | – | > 100 µM | – | > 100 µM | – | > 100 µM
